From patent publication US20240090503A1, “FUNGICIDAL OXADIAZOLES AND THEIR MIXTURES” (FMC CORPORATION, priority 2020, published 2024)
Like-named read-outs stand apart in the source and are kept apart here. Each block holds one molecule with its values, some of them ahead of it.

Tests used:
[1] = system: Phakopsora pachyrhizi (the causal agent of Asian soybean rust); test: Test A: preventive spray on soybean seedlings, Asian soybean rust, visual disease rating; type: in vivo; settings: Phakopsora pachyrhizi, 216 h, soybean seedlings, 100 = 100% disease control, 0 = no control; for pest or weed control at 10 µg/mL: test suspension 10 ppm, read-out: Test A disease control rating; for pest or weed control at 10 ppm: 10 ppm test suspension
Summary of the method: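 Preventive test: soybean seedlings received a run-off spray of compound suspended at the set ppm in 50/50 acetone/water plus 250 ppm PEG400, and one day later a P. pachyrhizi spore inoculum. Visual scoring (0 none to 100 full disease control) followed 24 h saturated incubation and 8 days' growth chamber, both at 22° C.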

[2] = system: Zymoseptoria tritici (the causal agent of wheat leaf blotch); test: Test B: preventive spray on wheat seedlings, wheat leaf blotch, visual disease rating; type: in vivo; settings: Zymoseptoria tritici, 456 h, wheat seedlings; for pest or weed control at 250 µg/mL: test suspension 250 ppm; for pest or weed control at 250 ppm: 250 ppm test suspension, 100 = 100% disease control
Summary of the method: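 This is a preventive test: spray application preceded Zymoseptoria tritici spore inoculation by one day. Test suspensions were in acetone/water with 250 ppm PEG400 surfactant, at the listed ppm rate. After 48 h saturated humidity at 24° C and 17 days at 20° C, visual ratings scored control from 0 to 100%.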

[3] = system: Puccinia recondita f. sp. tritici (the causal agent of wheat leaf rust); test: Test C: preventive spray on wheat seedlings, wheat leaf rust, visual disease rating; type: in vivo; settings: Puccinia recondita, 168 h, wheat seedlings; for pest or weed control at 10 µg/mL: test suspension 10 ppm, read-out: Test C disease control rating; for pest or weed control at 10 ppm: 10 ppm test suspension
Summary of the method: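 Wheat seedlings sprayed to run-off with compound in acetone/water (50/50) with 250 ppm PEG400, then inoculated with spores the following day. After 24 h saturated humidity at 20° C. and 6 days in growth chamber at 20° C., disease rated visually as % control relative to untreated controls.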

[4] = system: Phakopsora pachyrhizi (the causal agent of Asian soybean rust); test: Test E: compounds alone and mixtures sprayed on soybean seedlings, Asian soybean rust, observed and Colby-expected disease control; type: in vivo
Source text: The general protocol for preparing test compositions for TEST E was as follows: Compound 316, Compound 376, Compound 225, Compound 229, Compound 257, Compound 394, Compound 506, Compound 507, Compound 508, Compound 509, Compound 511, Compound 512, methyl N-[[5-[1-[2,6-difluoro-4-(1-methylethyl)phenyl]-1H-pyrazol-3-yl]-2-methylphenyl]methyl]carbamate (b54.11a), methyl N-[[5-[l-(4-cyclopropyl-2,6-difluorophenyl)-1H-pyrazol-3-yl]-2-methylphenyl]methyl]carbamate (b54.11d), ethyl 1-[[4-[[(1Z)-2-ethoxy-3,3,3-trifluoro-1-propen-1-yl]oxy]phenyl]methyl]-1H-pyrazole-4-carboxylate (b54.12a), ethyl 1-[[4-[[2-(trifluoromethyl)-1,3-dioxolan-2-yl]methoxy]phenyl]methyl]-1H-pyrazole-4-carboxylate (b54.13a), azoxystrobin, benzovindiflupyr, bixafen, chlorothalonil, cyproconazole, epoxiconazole, fenpropidin, fenpropimorph, fluindapyr, flutriafol, fluxapyroxad, inpyrfluxam, metominostrobin, picoxystrobin, prothioconazole, pydiflumetofen, pyraclostrobin, tebuconazole and trifloxystrobin were obtained as unformulated, technical-grade materials. Copper hydroxide and mancozeb was obtained as a formulated product marketed under the trademarks KOCIDE 3000 and MANZATE, respectively. Unformulated materials were first dissolved in acetone and then suspended at the desired concentration (in ppm) in acetone and purified water (50/50 mixture by volume) containing 250 ppm of the surfactant Trem® 014 (polyhydric alcohol esters). Formulated materials were dispersed in sufficient water to give the desired concentration, and neither organic solvent nor surfactant was added to the suspension. The resulting test mixtures were then used in TEST E. The tests were run on four individual plants and the results reported as the mean average of the four plants.
The presence of a synergistic effect between two active ingredients can be established with the aid of the Colby equation (see Colby, S. R. “Calculating Synergistic and Antagonistic Responses of Herbicide Combinations”, Weeds, (1967), 15, 20-22):
Using the method of Colby, the presence of a synergistic interaction between two active ingredients is established by first calculating the predicted activity, p, of the mixture based on activities of the two components applied alone. If p is lower than the experimentally established effect, synergism has occurred. In the equation above, A is the fungicidal activity in percentage control of one component applied alone at rate x. The B term is the fungicidal activity in percentage control of the second component applied at rate y. The equation estimates p, the expected fungicidal activity of the mixture of A at rate x with B at rate y if their effects are strictly additive and no interaction has occurred.
The test mixture was sprayed to the point of run-off on soybean seedlings. The following day the seedlings were inoculated with a spore suspension of Phakopsora pachyrhizi (the causal agent of Asian soybean rust) and incubated in a saturated atmosphere at 22° C. for 24 h and then moved to a growth chamber at 22° C. for 8 days, after which time visual disease ratings were made.
Results for Test E are given below in Tables A-1 through K-2. Each table corresponds to a set of evaluations performed together at the same time. In each table, a rating of 100 indicates 100% disease control and a rating of 0 indicates no disease control (relative to the controls). Columns labeled “Obsd” indicate the average of results observed from test run on four individual plants. Columns labeled “Exp” indicate the expected value for each treatment mixture using the Colby equation, as described above.

[5] = Phakopsora pachyrhizi, Compound 509 alone, read-out: Test E Obsd
[6] = Phakopsora pachyrhizi, applied alone, read-out: Test E Obsd
[7] = 100 = 100% disease control, 0 = no control
[8] = Phakopsora pachyrhizi, Compound 512 alone, read-out: Test E Obsd

SMILES: Cn1nc(C(=O)NCC(F)(F)F)cc1Cc1ccc(-c2noc(C(F)(F)F)n2)cc1 [Compound 509, 1-methyl-N-(2,2,2-trifluoroethyl)-5-[[4-[5-(trifluoromethyl)-1,2,4-oxadiazol-3-yl]phenyl]methyl]-1H-pyrazole-3-carboxamide]
pest or weed control at 50 ppm ([1]; 50 ppm test suspension): 100% | pest or weed control at 50 ppm ([3]; 50 ppm test suspension, 100 = 100% disease control, 0 = no control): 99% | pest or weed control at 2.796 ppm [4, 5]: 36% | pest or weed control at 5.625 ppm [4, 5]: 47% | pest or weed control at 2.796 ppm [4, 6]: 54% | pest or weed control at 5.625 ppm [4, 6]: 35% | melting point: 142 to 142.9 °C

SMILES: O=C(NCC(F)F)c1csc(Cc2ccc(-c3noc(C(F)(F)F)n3)cc2)n1 [Compound 505, N-(2,2-difluoroethyl)-2-[[4-[5-(trifluoromethyl)-1,2,4-oxadiazol-3-yl]phenyl]methyl]-4-thiazolecarboxamide]
pest or weed control at 10 ppm [1]: 100% | pest or weed control at 250 ppm [2]: 100% | pest or weed control at 10 ppm [3, 7]: 100% | melting point: 83 to 92 °C

SMILES: COCCNC(=O)c1csc(Cc2ccc(-c3noc(C(F)(F)F)n3)cc2)n1 [Compound 394, N-(2-methoxyethyl)-2-[[4-[5-(trifluoromethyl)-1,2,4-oxadiazol-3-yl]phenyl]methyl]-4-thiazolecarboxamide]
pest or weed control at 10 ppm [1]: 100% | pest or weed control at 250 ppm [2]: 99% | pest or weed control at 10 ppm [3, 7]: 100% | pest or weed control at 0.241 ppm ([4]; Phakopsora pachyrhizi, applied alone, 0.241 ppm, read-out: Test E Obsd): 4% | melting point: 83 to 87 °C

SMILES: Cn1nc(Cc2ccc(-c3noc(C(F)(F)F)n3)cc2)cc1C(=O)NCC(F)(F)F [Compound 512, 1-methyl-N-(2,2,2-trifluoroethyl)-3-[[4-[5-(trifluoromethyl)-1,2,4-oxadiazol-3-yl]phenyl]methyl]-1H-pyrazole-5-carboxamide]
pest or weed control at 10 ppm [1]: 100% | pest or weed control at 250 ppm [2]: 98% | pest or weed control at 10 ppm [3, 7]: 100% | pest or weed control at 1.893 ppm [4, 8]: 9% | pest or weed control at 3.829 ppm [4, 8]: 58% | pest or weed control at 1.893 ppm [4, 6]: 14% | pest or weed control at 3.829 ppm [4, 6]: 66% | melting point: 156 to 160 °C

SMILES: N#CCn1ccc(Cc2ccc(-c3noc(C(F)(F)F)n3)cc2)n1 [Compound 507, 3-[4-[(1-cyanomethyl-1H-pyrazol-3-yl)methyl]phenyl]-5-(trifluoromethyl)-1,2,4-oxadiazole]
pest or weed control at 10 ppm [1]: 100% | pest or weed control at 10 ppm [3, 7]: 98% | pest or weed control at 1.823 ppm ([4]; Phakopsora pachyrhizi, applied alone, 1.823 ppm, read-out: Test E Obsd): 74% | melting point: 111 to 114 °C

Further lines, with some results ahead:

melting point: 125 to 126 °C
SMILES: O=C(NCCn1cccn1)c1coc(Cc2ccc(-c3noc(C(F)(F)F)n3)cc2)n1 [Compound 264, N-[2-(1H-pyrazol-1-yl)ethyl]-2-[[4-[5-(trifluoromethyl)-1,2,4-oxadiazol-3-yl]phenyl]methyl]-4-oxazolecarboxamide]
pest or weed control at 10 µg/mL [1]: 100% | pest or weed control at 250 µg/mL [2]: 99% | pest or weed control at 10 µg/mL [3]: 99%

melting point: 104 to 105 °C
SMILES: O=C(NCCC(F)(F)F)c1coc(Cc2ccc(-c3noc(C(F)(F)F)n3)cc2)n1 [Compound 330, 2-[[4-[5-(trifluoromethyl)-1,2,4-oxadiazol-3-yl]phenyl]methyl]-N-(3,3,3-trifluoropropyl)-4-oxazolecarboxamide]
pest or weed control at 10 µg/mL [1]: 100% | pest or weed control at 250 µg/mL [2]: 96% | pest or weed control at 10 µg/mL [3]: 100%

melting point: 164 to 168 °C
SMILES: O=C(NCC(F)(F)F)c1coc(Cc2ccc(-c3noc(C(F)(F)F)n3)cc2)n1 [Compound 316, N-(2,2,2-trifluoroethyl)-2-[[4-[5-(trifluoromethyl)-1,2,4-oxadiazol-3-yl]phenyl]methyl]-4-oxazolecarboxamide]
pest or weed control at 10 µg/mL [1]: 100% | pest or weed control at 250 µg/mL [2]: 5% | pest or weed control at 10 µg/mL [3]: 100% | pest or weed control at 0.471 ppm ([4]; Phakopsora pachyrhizi, Compound 316 alone, 0.471 ppm, read-out: Test E Obsd): 24% | pest or weed control at 0.764 ppm ([4]; Phakopsora pachyrhizi, Compound 316 alone, 0.764 ppm, read-out: Test E Obsd): 82% | pest or weed control at 0.471 ppm ([4]; Phakopsora pachyrhizi, Table A-1, Compound 316 0.471 ppm alone, read-out: Test E Obsd (disease control rating)): 59% | pest or weed control at 0.764 ppm ([4]; Phakopsora pachyrhizi, Table A-1, Compound 316 0.764 ppm alone, read-out: Test E Obsd (disease control rating)): 75% | pest or weed control at 0.471 ppm ([4]; Phakopsora pachyrhizi, Table B-1, Compound 316 0.471 ppm alone, read-out: Test E Obsd (disease control rating)): 22% | pest or weed control at 0.764 ppm ([4]; Phakopsora pachyrhizi, Table B-1, Compound 316 0.764 ppm alone, read-out: Test E Obsd (disease control rating)): 54% | pest or weed control at 0.471 ppm ([4]; Phakopsora pachyrhizi, Table C-1, Compound 316 0.471 ppm alone, read-out: Test E Obsd (disease control rating)): 49% | pest or weed control at 0.764 ppm ([4]; Phakopsora pachyrhizi, Table C-1, Compound 316 0.764 ppm alone, read-out: Test E Obsd (disease control rating)): 66% | pest or weed control at 0.471 ppm ([4]; Phakopsora pachyrhizi, Table D-1, Compound 316 0.471 ppm alone, read-out: Test E Obsd (disease control rating)): 20% | pest or weed control at 0.764 ppm ([4]; Phakopsora pachyrhizi, Table D-1, Compound 316 0.764 ppm alone, read-out: Test E Obsd (disease control rating)): 70% | pest or weed control at 0.471 ppm ([4]; Phakopsora pachyrhizi, Table F-1, Compound 316 0.471 ppm alone, read-out: Test E Obsd (disease control rating)): 61% | pest or weed control at 0.764 ppm ([4]; Phakopsora pachyrhizi, Table F-1, Compound 316 0.764 ppm alone, read-out: Test E Obsd (disease control rating)): 68% | pest or weed control at 0.471 ppm ([4]; Phakopsora pachyrhizi, Table G-1, Compound 316 0.471 ppm alone, read-out: Test E Obsd (disease control rating)): 31% | pest or weed control at 0.764 ppm ([4]; Phakopsora pachyrhizi, Table G-1, Compound 316 0.764 ppm alone, read-out: Test E Obsd (disease control rating)): 64% | pest or weed control at 0.471 ppm ([4]; Phakopsora pachyrhizi, Table H-1, Compound 316 0.471 ppm alone, read-out: Test E Obsd (disease control rating)): 44% | pest or weed control at 0.764 ppm ([4]; Phakopsora pachyrhizi, Table H-1, Compound 316 0.764 ppm alone, read-out: Test E Obsd (disease control rating)): 80% | pest or weed control at 0.471 ppm ([4]; Table E-1, Compound 316 0.471 ppm alone, read-out: Test E Obsd (disease control rating)): 61% | pest or weed control at 0.764 ppm ([4]; Table E-1, Compound 316 0.764 ppm alone, read-out: Test E Obsd (disease control rating)): 58%
